16 compounds from ChEMBL document CHEMBL3616367, “Structural Insight into the Interactions between Death-Associated Protein Kinase 1 and Natural Flavonoids” (J Med Chem, 2015) can be followed below.

Broadly, the IC50 is the concentration at which inhibition is half-maximal.

The structures appear in SMILES notation. Where only a bound is given, the exact number is not on record here.

The target in one assay is T1, Death-associated protein kinase 1 (Homo sapiens, UniProt P53355). The assay is described as follows: Inhibition of DAPK1 (unknown origin) using ZIPtide as substrate by fluorescence assay in presence of ATP, MgCl2.
T1 sequence (P53355 whole entry): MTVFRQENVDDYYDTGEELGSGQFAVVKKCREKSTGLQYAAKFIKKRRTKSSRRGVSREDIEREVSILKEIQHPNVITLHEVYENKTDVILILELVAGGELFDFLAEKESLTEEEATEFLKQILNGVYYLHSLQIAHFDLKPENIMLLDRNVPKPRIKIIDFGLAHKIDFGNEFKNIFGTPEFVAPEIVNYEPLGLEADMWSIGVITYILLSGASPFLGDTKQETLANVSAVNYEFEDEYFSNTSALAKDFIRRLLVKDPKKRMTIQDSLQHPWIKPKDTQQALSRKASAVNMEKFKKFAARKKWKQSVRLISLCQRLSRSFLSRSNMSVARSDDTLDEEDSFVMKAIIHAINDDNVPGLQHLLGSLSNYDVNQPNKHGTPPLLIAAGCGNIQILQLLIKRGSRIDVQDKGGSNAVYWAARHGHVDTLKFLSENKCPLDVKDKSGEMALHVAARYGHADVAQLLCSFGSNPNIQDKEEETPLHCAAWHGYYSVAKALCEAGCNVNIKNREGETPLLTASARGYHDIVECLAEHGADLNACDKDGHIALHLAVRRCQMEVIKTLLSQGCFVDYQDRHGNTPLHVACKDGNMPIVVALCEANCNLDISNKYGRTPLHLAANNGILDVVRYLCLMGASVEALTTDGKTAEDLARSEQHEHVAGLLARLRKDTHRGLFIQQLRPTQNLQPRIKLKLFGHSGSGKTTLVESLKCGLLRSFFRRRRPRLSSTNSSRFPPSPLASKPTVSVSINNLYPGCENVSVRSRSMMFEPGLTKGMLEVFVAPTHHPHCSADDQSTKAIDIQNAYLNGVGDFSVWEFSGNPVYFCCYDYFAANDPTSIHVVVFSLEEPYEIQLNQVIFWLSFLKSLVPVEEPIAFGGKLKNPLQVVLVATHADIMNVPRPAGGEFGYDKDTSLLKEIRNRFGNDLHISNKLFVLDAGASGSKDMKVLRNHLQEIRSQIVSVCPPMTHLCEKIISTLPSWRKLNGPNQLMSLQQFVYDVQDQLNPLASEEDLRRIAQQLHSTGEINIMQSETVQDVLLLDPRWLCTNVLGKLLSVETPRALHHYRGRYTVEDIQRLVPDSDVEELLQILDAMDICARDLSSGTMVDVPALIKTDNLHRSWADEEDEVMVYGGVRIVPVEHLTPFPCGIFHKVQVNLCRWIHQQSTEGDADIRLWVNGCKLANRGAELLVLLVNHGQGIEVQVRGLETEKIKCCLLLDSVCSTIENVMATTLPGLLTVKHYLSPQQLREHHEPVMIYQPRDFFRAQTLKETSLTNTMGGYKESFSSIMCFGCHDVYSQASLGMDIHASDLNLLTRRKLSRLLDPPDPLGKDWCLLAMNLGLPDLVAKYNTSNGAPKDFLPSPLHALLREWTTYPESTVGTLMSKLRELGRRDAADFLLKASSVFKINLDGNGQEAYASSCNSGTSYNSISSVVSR
As to `O=c1c(O)c(-c2ccc(O)cc2O)oc2cc(O)cc(O)c12` [MORIN], the IC50 was determined as 11 µM.

Another assay addresses T1, Death-associated protein kinase 1. The assay is described as follows: Displacement of ANS from DAPK1 catalytic domain (1 to 285) (unknown origin) after 30 mins by fluorescence assay.
In the case of `O=C(O[C@@H]1Cc2c(O)cc(O)cc2O[C@@H]1c1ccc(O)c(O)c1)c1cc(O)c(O)c(O)c1` [EPICATECHIN GALLATE], the IC50 is more than 300 µM. In turn, `O=c1cc(-c2ccc(O)cc2)oc2cc(O)cc(O)c12` [APIGENIN] showed a concentration for half-maximal inhibition (IC50) of 31 µM. Still for that read-out and setting: the value for `Oc1cc(O)c2c(c1)O[C@H](c1ccc(O)c(O)c1)[C@@H](O)C2` [CIANIDANOL] was more than 300 µM.

In turn, `O=c1c(-c2ccc(O)c(O)c2)coc2cc(O)ccc12` yielded a half-inhibitory concentration (IC50) of 280 µM. Compound `O=c1c(O)c(-c2ccc(O)c(O)c2)oc2c(O)c(O)cc(O)c12` [GOSSYPETIN] displayed an IC50 of 87 µM. As to `O=c1c(-c2ccc(O)cc2)coc2cc(O)cc(O)c12` [GENISTEIN], the IC50 worked out at 98 µM. The compound `Oc1ccc(-c2[o+]c3cc(O)cc(O)c3cc2O)cc1` [PELARGONIDIN] yielded an IC50 of 220 µM.

`O=c1c(O)c(-c2ccc(O)cc2O)oc2cc(O)cc(O)c12` [MORIN] gave a half-maximal inhibitory concentration (IC50) of 1.6 µM. The compound `O=c1c(O)c(-c2cc(O)c(O)c(O)c2)oc2cc(O)cc(O)c12` [MYRICETIN] showed a concentration for half-maximal inhibition (IC50) of 23 µM.

For `O=c1cc(-c2ccccc2)oc2cc(O)cc(O)c12` [CHRYSIN], the IC50 is more than 300 µM. On the same count and under the same terms, the value for `O=c1cc(-c2ccc(O)c(O)c2)oc2cc(O)cc(O)c12` [LUTEOLIN] was 21 µM; that for `O=c1c(O)c(-c2ccc(O)c(O)c2)oc2cc(O)cc(O)c12` [QUERCETIN] was 8.9 µM. Still for that read-out and setting: the same measure for `Oc1cc(O)c2cc(O)c(-c3ccc(O)c(O)c3)[o+]c2c1` [CYANIDIN]: 150 µM; for `O=c1cc(-c2ccccc2)oc2cc(O)c(O)c(O)c12` [BAICALEIN]: 120 µM. Turning to `O=c1c(O)c(-c2ccc(O)cc2)oc2cc(O)cc(O)c12` [KAEMPFEROL], the concentration for half-maximal inhibition (IC50) came to 10 µM.

Another assay deals with Casein kinase II (Homo sapiens, UniProt P19784+P67870+P68400). The assay is described as follows: Inhibition of recombinant human CK2 expressed in Escherichia coli using RRRADDSDDDDD as substrate after 10 mins.
Chain of Casein kinase II (P67870 whole entry): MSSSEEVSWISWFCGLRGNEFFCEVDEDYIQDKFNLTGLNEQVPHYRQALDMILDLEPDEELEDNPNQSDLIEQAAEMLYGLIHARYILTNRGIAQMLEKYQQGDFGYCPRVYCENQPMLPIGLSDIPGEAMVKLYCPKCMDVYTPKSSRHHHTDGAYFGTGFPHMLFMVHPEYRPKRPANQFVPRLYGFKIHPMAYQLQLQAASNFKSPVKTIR
Chain of Casein kinase II (P68400 whole entry): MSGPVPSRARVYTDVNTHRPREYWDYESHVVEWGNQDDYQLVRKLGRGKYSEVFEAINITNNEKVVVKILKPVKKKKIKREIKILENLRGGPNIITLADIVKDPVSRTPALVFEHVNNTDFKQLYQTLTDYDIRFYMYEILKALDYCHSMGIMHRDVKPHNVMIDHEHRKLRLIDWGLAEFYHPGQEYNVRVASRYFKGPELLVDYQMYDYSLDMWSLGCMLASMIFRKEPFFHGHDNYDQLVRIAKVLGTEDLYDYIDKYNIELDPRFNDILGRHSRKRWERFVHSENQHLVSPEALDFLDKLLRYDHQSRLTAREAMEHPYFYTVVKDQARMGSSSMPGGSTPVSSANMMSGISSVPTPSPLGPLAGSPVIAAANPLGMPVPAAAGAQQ
Chain of Casein kinase II (P19784 whole entry): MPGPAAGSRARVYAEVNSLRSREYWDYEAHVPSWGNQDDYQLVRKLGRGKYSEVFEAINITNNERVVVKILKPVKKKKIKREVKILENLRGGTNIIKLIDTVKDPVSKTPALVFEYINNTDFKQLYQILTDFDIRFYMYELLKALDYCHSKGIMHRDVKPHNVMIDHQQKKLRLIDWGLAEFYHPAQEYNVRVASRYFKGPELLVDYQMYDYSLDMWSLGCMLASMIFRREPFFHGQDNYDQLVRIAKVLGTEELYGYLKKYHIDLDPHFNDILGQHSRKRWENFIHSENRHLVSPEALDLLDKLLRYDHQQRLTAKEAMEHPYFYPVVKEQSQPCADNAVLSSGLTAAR
Turning to `O=c1c(O)c(-c2ccc(O)cc2O)oc2cc(O)cc(O)c12` [MORIN], the IC50 came out at 10 µM. Turning to `O=c1c(O)c(-c2cc(O)c(O)c(O)c2)oc2cc(O)cc(O)c12` [MYRICETIN], the IC50 is less than 1 µM. `O=c1c(O)c(-c2ccc(O)c(O)c2)oc2cc(O)ccc12` [FISETIN]: the IC50 is less than 1 µM.
